Assay results taken from patent US6174864A, “Methods for the prevention or treatment of inflammatory bowel diseases” (CCI Corporation, priority 1996, dated 2001).

How the values were obtained:
[1] = Water-solubility; type: physicochemical; settings: ratio to that of Trolox
[2] = cited from earlier work; for water-solubility: prior-art compounds
[3] = tested on: TNB-induced colitis; assay: Effect of repressing lesion in TNB-induced colitis (body weight increase, damage score, wet weight of intestine); type: in vivo, Male Wistar rats; settings: intraabdominal, daily, one week; for Wet weight: intestine, normal 0.58, control 2.6; for Damage score: lesion 0-5 plus adhesion 0-3, normal 0, control 7.25; for Amount of increase in body weight: normal group 93.5, control group 17.5
Text: (§1) The trinitrobenzenesulfonic acid (TNB)-induced colitis is said to resemble the inflammatory bowel disease of man, particularly Crohn's disease. In this model, the myeloperoxidase (MPO) activity, i.e. an index of the humectation of neutrophil into the tissue, prominently increases in the intestinal mucous membrane from the initial stage of the TNB administration onward and thereafter induces full-thickness inflammations inclusive of edama, erosion, and necrosis of the intestinal duct. In this lesion of the mucous membrane, the thiobarbituraic acid (TAB) reaction substance, i.e. an index of the peroxide of lipid, also increases and the antioxidizing substances such as the SOD activity, the glutathionperoxidase (GPx) activity, and α-tocopherol conversely decrease. By the use of this model, the chromanol glucoside was tested for the effect thereof manifested in repressing the lesion of the TNB-induced colitis.
(§2) As the chromanol glucoside, the 2-(α-D-glucopyranosyl) methyl-2,5,7,8-tetramethylchroman-6-ol (TMG) represented by the following formula (3) produced by the method described in Example 1 of JP-A-07-118,287 was thoroughly dissolved in water in varying concentrations of 20 mg/ml, 2 mg/ml, and 0.2 mg/ml to obtain injection grade preparations. [drawing 5]
Male Wistar rats 7 weeks old weighing 190-210 g were divided into groups of six heads. To the rats, after 48 hours' fasting, the TBN dissolved in 50% ethanol in a ratio of 120 mg/ml was intestinally administered at a dose of 1 ml/kg. Thereafter, the TMG preparations obtained as described above were administered to the rats intraabdominally at a dose of […] per head daily. After one week of the administration, the rats were rated for increase of body weight, damage score of the intestine in a 8 cm region on the side of the anus, wet weight, TBA reactive substance, and MPO activity.
(§3) Of the items of rating mentioned above, the damage score, the TBA reactive substance, and the MPO activity were measured by the following methods.
The lesion on the intestinal mucous membrane was classified on the six-point (0-5) scale in accordance with the Morris Classification (G. P. Morris, et al.,: Gastoenterology, 96 (1989) 750-803) and the degree of adhesion to the intestinal mucous membrane was classified on the four-point (0-3) scale (0: absence of adhesion, 1: presence of incontinuous adhesion, 2: presence of continuous adhesion, and 3: presence of clots). The sums of these points were used for rating.

[4] = tested on: TBA reactive substance (index of the peroxide of lipid), TNB-induced colitis; assay: TBA reactive substance in intestinal mucous membrane of TNB-induced colitis; type: in vivo, Male Wistar rats; settings: intraabdominal, daily, one week, normal 0.13, control 0.53
Text: as §1, §2
Male Wistar rats 7 weeks old weighing 190-210 g were divided into groups of six heads. To the rats, after 48 hours' fasting, the TBN dissolved in 50% ethanol in a ratio of 120 mg/ml was intestinally administered at a dose of 1 ml/kg. […]
as §3
The determination was performed in accordance with the method proposed by Ohkawa et al. (H. Ohkawa, et al.: Anal. Biochem., 95 (1979) 351-358). […] The supernatant resulting from the centrifugation was measured for absorbance at a wavelength of 535 nm with a spectrophotometer. […] Based on this calibration curve, the TBA reactive substance of a sample was determined.

[5] = tested on: myeloperoxidase (MPO), TNB-induced colitis; assay: MPO activity in intestinal mucous membrane of TNB-induced colitis; type: in vivo, Male Wistar rats; settings: intraabdominal, daily, one week, normal 0.19, control 0.74
Text: as §1, §2
Male Wistar rats 7 weeks old weighing 190-210 g were divided into groups of six heads. […]
as §3
The determination was carried out in accordance with the o-dianisidine-hydrogen peroxide reaction (J. E. Krrawisz, et al.,: Gastroenterology, 87 (1984) 1344-135). […] In 950 μl of a reaction solution prepared by dissolving 16.7 mg of o-dianidine dihydrochloride in 50 mM of potassium phosphate having a pH of 6.0 and further mixing the resulting solution with 100 μl of an aqueous 0.5% hydrogen peroxide solution, 50 μl of the sample was placed and measured for change in absorbance at a wavelength of 460 nm with a spectrophotometer. […]

[6] = tested on: ICR type mice; assay: Test for acute toxicity; type: in vivo; settings: oral, 500 mg/kg in 5% gum arabic solution, one week observation
Method: The preventive and curative agent of this invention for inflammatory bowel diseases was tested for acute toxicity in an effort to confirm the safety thereof. ICR type mice 4-5 weeks old were divided into groups of three heads. The same TMG as mentioned above was suspended as a chromanol glucoside in 5% gum arabic solution. The resultant suspension was orally administered to the rats in a dosage of 500 mg/kg as reduced to TMG, with the rats kept under observation for one week. In this case, 0.3 ml of a 5% gum arabic solution was administered to a control group.

In the case of `Cc1c(C)c2c(c(C)c1O)CCC(C)(CO)O2` (centres unmarked) [TMC-2-substituted methanol, 2-hydroxymethyl-2,5,7,8-tetramethylchroman-6-ol], the “water-solubility relative to Trolox” value [1] is given as “about 6.3 times” and the water-solubility [2] is given as “about 100 mg/100 ml”.

With `Cc1c(C)c2c(c(C)c1O)CCC(C)(CO[C@H]1O[C@H](CO)[C@@H](O)[C@H](O)[C@H]1O)O2` (some centres unmarked) [TMG] the Wet weight ([3]; TMG 0.2 mg/ml) was 1.06 g/8 cm, the Damage score ([3]; TMG 0.2 mg/ml) was 4.75 and the “Amount of increase in body weight” value ([3]; TMG 0.2 mg/ml) was 63 g/one week. For the same molecule, the Wet weight ([3]; TMG 2 mg/ml) was 1.15 g/8 cm, the Damage score ([3]; TMG 2 mg/ml) was 3.75 and the “Amount of increase in body weight” value ([3]; TMG 2 mg/ml) was 64 g/one week. For the same molecule, the Wet weight ([3]; TMG 20 mg/ml) was 0.86 g/8 cm, the Damage score ([3]; TMG 20 mg/ml) was 4 and the “Amount of increase in body weight” value ([3]; TMG 20 mg/ml) was 57 g/one week. The TAB reactive substance ([4]; TMG 0.2 mg/ml) was 0.31 ng/mg protein, the TAB reactive substance ([4]; TMG 2 mg/ml) was 0.38 ng/mg protein and the TAB reactive substance ([4]; TMG 20 mg/ml) was 0.35 ng/mg protein. It also gave an MPO activity ([5]; TMG 0.2 mg/ml) of 0.52 U/l/mg protein, an MPO activity ([5]; TMG 2 mg/ml) of 0.64 U/l/mg protein and an MPO activity ([5]; TMG 20 mg/ml) of 0.48 U/l/mg protein. For the same molecule, the “death of mouse in acute toxicity test” value [6] was “No case of death”.

In the case of `Cc1c(C)c2c(c(C)c1O)CCC(C)(C(=O)O)O2` (centres unmarked) [Trolox, 6-hydroxy-2,5,7,8-tetramethylchroman-2-carboxylic acid], the water-solubility [2] is listed as “about 15 mg/100 ml”.

In the case of `Cc1c(C)c2c(c(C)c1O)CCC(C)(CCCC(C)CCCC(C)CCCC(C)C)O2` (stereo not drawn) [vitamin E, α-tocopherol], the “water-solubility (in words)” value ([2]; prior-art compound) is listed as “not soluble in water”.
